{"source": "ChEMBL document CHEMBL1156449", "about": "“The nucleoside analog sangivamycin induces apoptotic cell death in breast carcinoma MCF7/adriamycin-resistant cells via protein kinase Cdelta and JNK activation” (J Biol Chem, 2007)", "key": {"MCF/ADR [1]": {"system": "MCF/ADR", "assay": "Induction of apoptosis in human multidrug resistant MCF/ADR cells assessed as cleavage of lamin A at 0.3 uM by immunoblot analysis", "format": "functional, cell-based"}, "MCF/ADR [2]": {"system": "MCF/ADR", "assay": "Increase in Bcl-x/s levels in human multidrug resistant MCF/ADR cells at 0.3 uM by immunoblot analysis", "format": "functional, cell-based"}, "MCF/ADR [3]": {"system": "MCF/ADR", "assay": "Cytocidal effect in human multidrug resistant MCF/ADR cells assessed as decrease in number of viable cells at 0.1 uM after 1 hr measured after 72 hrs in absence of drug by MTT colorimetric assay", "format": "functional, cell-based"}, "[4]": {"assay": "Cell cycle arrest in human multidrug resistant MCF/ADR cells assessed as accumulation at G0/G1 phase at 0.3 uM after 72 hrs by propidium fluorescence flow cytometry", "format": "functional, cell-based"}, "[5]": {"assay": "Inhibition of nuclear protein kinase 2"}, "[6]": {"target": "Transcription factor Jun (Homo sapiens) (UniProt P05412)", "sequence (P05412 whole entry)": "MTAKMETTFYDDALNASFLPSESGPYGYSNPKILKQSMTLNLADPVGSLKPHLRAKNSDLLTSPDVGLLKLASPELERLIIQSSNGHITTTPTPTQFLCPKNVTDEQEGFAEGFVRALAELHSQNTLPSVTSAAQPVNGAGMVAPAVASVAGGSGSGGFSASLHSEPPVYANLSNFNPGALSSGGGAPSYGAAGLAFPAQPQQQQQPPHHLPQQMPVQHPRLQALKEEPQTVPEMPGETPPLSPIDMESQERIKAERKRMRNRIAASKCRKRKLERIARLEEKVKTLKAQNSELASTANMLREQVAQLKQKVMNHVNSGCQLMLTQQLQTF", "assay": "Induction of c-Jun serine 63 phosphorylation in human multidrug resistant MCF/ADR cells at 0.3 uM", "format": "cell-based"}, "MCF/WT [7]": {"system": "MCF/WT", "assay": "Cytostatic effect in human drug sensitive MCF/WT cells assessed as slight increase in number of viable cells at 30 nM after 6 days by MTT colorimetric assay", "format": "functional, cell-based"}, "[8]": {"target": "Transcription factor Jun (Homo sapiens) (UniProt P05412)", "assay": "Reduction in induction of c-Jun phosphorylation in human multidrug resistant MCF/ADR cells transfected with c-Jun siRNA at 0.3 uM after 48 hrs by immunoblot analysis", "format": "cell-based"}, "MCF/WT [9]": {"system": "MCF/WT", "assay": "Increase in wild-type full length p53 accumulation in human drug-sensitive MCF/WT cells at 0.3 uM by immunoblot analysis", "format": "functional, cell-based"}, "MCF/WT [10]": {"system": "MCF/WT", "assay": "Cytostatic effect in human drug sensitive MCF/WT cells assessed as slight increase in number of viable cells at 0.1 uM after 1 hr measured after 72 hrs in absence of drug by MTT colorimetric assay", "format": "functional, cell-based"}, "[11]": {"assay": "Cell cycle arrest in human drug-sensitive MCF/WT cells assessed as accumulation at G2/M phase at 0.3 uM after 72 hrs by propidium fluorescence flow cytometry", "format": "functional, cell-based"}, "MCF/WT [12]": {"system": "MCF/WT", "assay": "Increase in Bcl-x/s levels in human drug-sensitive MCF/WT cells at 0.3 uM by immunoblot analysis", "format": "functional, cell-based"}, "MCF-10A": {"system": "MCF-10A", "assay": "Induction of apoptosis in human MCF10A cells assessed as accumulation of PARP at 0.3 uM after 48 hrs by immunoblot analysis", "format": "functional, cell-based"}, "[13]": {"assay": "Cell cycle arrest in human multidrug resistant MCF/ADR cells assessed as accumulation at G2/M phase at 0.3 uM after 24 hrs by propidium fluorescence flow cytometry", "format": "functional, cell-based"}, "MCF/ADR [14]": {"system": "MCF/ADR", "assay": "Reduction in induction of apoptosis in SP600125 pretreated human multidrug resistant MCF/ADR cells assessed as reduction of cleavage of PARP at 0.3 uM after 48 hrs by immunoblot analysis", "format": "functional, cell-based"}, "MCF/ADR [15]": {"system": "MCF/ADR", "assay": "Reduction in induction of apoptosis in SP600125 pretreated human multidrug resistant MCF/ADR cells assessed as reduction of cleavage of lamin A at 0.3 uM after 48 hrs by immunoblot analysis", "format": "functional, cell-based"}, "[16]": {"target": "T1, c-Jun N-terminal kinase, JNK (Homo sapiens) (UniProt P45983+P53779+P45984)", "assay": "Induction of JNK activity in human multidrug resistant MCF/ADR cells assessed as mitochondrial localization of phosphorylated JNK with Bcl-x/l", "format": "cell-based"}, "MDA-MB-468": {"system": "MDA-MB-468", "assay": "Induction of apoptosis in human multidrug resistant MDA-MB-468 cells assessed as accumulation of PARP at 0.3 uM after 48 hrs by immunoblot analysis", "format": "functional, cell-based"}, "MCF/ADR [17]": {"system": "MCF/ADR", "assay": "Cytocidal effect in human multidrug resistant MCF/ADR cells assessed as decrease in number of viable cells at 30 nM after 6 days by MTT colorimetric assay", "format": "functional, cell-based"}, "Rhodopsin kinase GRK1": {"target": "T2, Rhodopsin kinase GRK1 (Homo sapiens, UniProt Q15835)", "T2 sequence (Q15835 whole entry)": "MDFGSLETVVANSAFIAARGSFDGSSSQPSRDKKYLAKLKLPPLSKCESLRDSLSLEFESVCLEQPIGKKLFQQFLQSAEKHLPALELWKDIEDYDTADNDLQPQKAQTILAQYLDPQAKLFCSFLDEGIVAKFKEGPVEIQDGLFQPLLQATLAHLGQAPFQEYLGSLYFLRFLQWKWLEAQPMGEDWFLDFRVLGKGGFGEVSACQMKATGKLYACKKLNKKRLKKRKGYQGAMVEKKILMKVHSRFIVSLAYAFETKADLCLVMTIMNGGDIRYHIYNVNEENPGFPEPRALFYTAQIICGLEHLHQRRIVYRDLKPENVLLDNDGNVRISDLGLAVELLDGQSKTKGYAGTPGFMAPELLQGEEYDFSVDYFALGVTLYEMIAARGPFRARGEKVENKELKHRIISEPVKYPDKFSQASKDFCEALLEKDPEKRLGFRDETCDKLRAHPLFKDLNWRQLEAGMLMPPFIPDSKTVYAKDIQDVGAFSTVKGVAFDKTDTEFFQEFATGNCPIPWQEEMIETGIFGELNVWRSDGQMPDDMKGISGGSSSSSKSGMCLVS", "assay": "Inhibition of rhodopsin kinase"}, "MCF/ADR [18]": {"system": "MCF/ADR", "assay": "Increase in Bax levels in human multidrug resistant MCF/ADR cells at 0.3 uM by immunoblot analysis", "format": "functional, cell-based"}, "MCF/WT [19]": {"system": "MCF/WT", "assay": "Increase in p21CIP accumulation in human drug-sensitive MCF/WT cells at 0.3 uM after 48 hrs by immunoblot analysis", "format": "functional, cell-based"}, "[20]": {"assay": "Inhibition of nuclear protein kinase 1"}, "[21]": {"assay": "Cell cycle arrest in human multidrug resistant MCF/ADR cells assessed as accumulation at sub G0/G1 phase at 0.3 uM after 48 hrs by propidium fluorescence flow cytometry", "format": "functional, cell-based"}, "MCF/ADR [22]": {"system": "MCF/ADR", "assay": "Induction of apoptosis in human multidrug resistant MCF/ADR cells assessed as activation of caspase 9 at 0.3 uM by immunoblot analysis", "format": "functional, cell-based"}, "[23]": {"target": "Bcl-2-like protein 1 (Homo sapiens) (UniProt Q07817)", "sequence (Q07817 whole entry)": "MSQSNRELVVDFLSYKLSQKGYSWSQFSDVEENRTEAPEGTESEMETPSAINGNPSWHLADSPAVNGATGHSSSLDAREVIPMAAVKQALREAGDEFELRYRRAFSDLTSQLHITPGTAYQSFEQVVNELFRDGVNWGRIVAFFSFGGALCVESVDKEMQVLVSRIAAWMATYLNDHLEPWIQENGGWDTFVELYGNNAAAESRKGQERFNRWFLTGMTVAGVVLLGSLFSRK", "assay": "Inhibition of induction of Bcl-x/s phosphorylation in human multidrug resistant MCF/ADR cells at 0.3 uM after 48 hrs in presence of SP600125", "format": "functional, cell-based"}, "[24]": {"target": "Transcription factor Jun (Homo sapiens) (UniProt P05412)", "assay": "Reduction in induction of c-Jun phosphorylation in human multidrug resistant MCF/ADR cells at 0.3 uM after 48 hrs by immunoblot analysis in presence of rottlerin", "format": "cell-based"}, "MCF/ADR [25]": {"system": "MCF/ADR", "assay": "Induction of apoptosis in human multidrug resistant MCF/ADR cells assessed as activation of caspase 6 at 0.3 uM by immunoblot analysis", "format": "functional, cell-based"}, "MCF/ADR [26]": {"system": "MCF/ADR", "assay": "Blockade of apoptosis induction in human multidrug resistant MCF/ADR cells at 0.3 uM after 48 hrs in presence of SP600125", "format": "functional, cell-based"}, "[27]": {"assay": "Cell cycle arrest in human drug-sensitive MCF/WT cells assessed as accumulation at G0/G1 phase at 0.3 uM after 72 hrs by propidium fluorescence flow cytometry", "format": "functional, cell-based"}, "[28]": {"assay": "Cell cycle arrest in human drug-sensitive MCF/WT cells assessed as accumulation at S phase at 0.3 uM after 48 hrs by propidium fluorescence flow cytometry", "format": "functional, cell-based"}, "[29]": {"target": "T1, c-Jun N-terminal kinase, JNK (Homo sapiens)", "assay": "Inhibition of induction of JNK phosphorylation in human multidrug resistant MCF/ADR cells at 0.3 uM after 48 hrs by immunocytochemical analysis in presence of rottlerin", "format": "cell-based"}, "MCF/ADR [30]": {"system": "MCF/ADR", "assay": "Inhibition of induction of apoptosis in human multidrug resistant MCF/ADR cells assessed as inhibition of cleavage of PARP at 0.3 uM after 48 hrs by immunoblot analysis in presence of caspase 9-specific inhibitor", "format": "functional, cell-based"}}, "note": "Calls of active or inactive are those of the source. No cut-off for these calls is given here."}
{"smiles": "NC(=O)c1cn([C@@H]2O[C@H](CO)[C@@H](O)[C@H]2O)c2ncnc(N)c12", "note": "[SANGIVAMYCIN]", "values": [{"measurement": "Activity", "setting": "MCF/ADR [1]", "result": "Active"}, {"measurement": "Activity", "setting": "MCF/ADR [2]", "result": "Active"}, {"measurement": "Activity", "setting": "MCF/ADR [3]", "result": "Active"}, {"measurement": "Activity", "setting": "[4]", "result": 17, "unit": "%"}, {"measurement": "Ki", "setting": "[5]", "result": 100, "unit": "µM"}, {"measurement": "Activity", "setting": "[6]", "result": "Active"}, {"measurement": "Activity", "setting": "MCF/WT [7]", "result": "Active"}, {"measurement": "Activity", "setting": "[8]", "result": "Active"}, {"measurement": "Activity", "setting": "MCF/WT [9]", "result": "Active"}, {"measurement": "Activity", "setting": "MCF/WT [10]", "result": "Active"}, {"measurement": "Activity", "setting": "[11]", "result": 28, "unit": "%"}, {"measurement": "Activity", "setting": "MCF/WT [12]", "result": "Active"}, {"measurement": "Activity", "setting": "MCF-10A", "result": "inactive"}, {"measurement": "Activity", "setting": "[13]", "result": 33, "unit": "%"}, {"measurement": "Activity", "setting": "MCF/ADR [14]", "result": "Active"}, {"measurement": "Activity", "setting": "MCF/ADR [15]", "result": "Active"}, {"measurement": "Activity", "setting": "[16]", "result": "Active"}, {"measurement": "Activity", "setting": "MDA-MB-468", "result": "Active"}, {"measurement": "Activity", "setting": "MCF/ADR [17]", "result": "Active"}, {"measurement": "Ki", "setting": "Rhodopsin kinase GRK1", "result": 0.18, "unit": "µM"}, {"measurement": "Activity", "setting": "MCF/ADR [18]", "result": "Active"}, {"measurement": "Activity", "setting": "MCF/WT [19]", "result": "Active"}, {"measurement": "Ki", "setting": "[20]", "result": 200, "unit": "µM"}, {"measurement": "Activity", "setting": "[21]", "result": 40, "unit": "%"}, {"measurement": "Activity", "setting": "MCF/ADR [22]", "result": "Active"}, {"measurement": "Activity", "setting": "[23]", "result": "Active"}, {"measurement": "Activity", "setting": "[24]", "result": "Active"}, {"measurement": "Activity", "setting": "MCF/ADR [25]", "result": "Active"}, {"measurement": "Activity", "setting": "MCF/ADR [26]", "result": "Active"}, {"measurement": "Activity", "setting": "[27]", "result": 57, "unit": "%"}, {"measurement": "Activity", "setting": "[28]", "result": 9, "unit": "%"}, {"measurement": "Activity", "setting": "[29]", "result": "Active"}, {"measurement": "Activity", "setting": "MCF/ADR [30]", "result": "Active"}]}
